Earlier results, collected in patent publication US20120135949A1, “COMBINATION THERAPY FOR TREATING HCV INFECTION” (BOEHRINGER INGELHEIM INTERNATIONAL GMBH, priority 2010, published 2012).

Tested on: HCV
Details: compound (1) monotherapy, 14 days, 1a and 1b patients

C=C[C@@H]1C[C@]1(NC(=O)[C@@H]1C[C@H](Oc2cc(-c3csc(NC(=O)C(C)C)n3)nc3c(Br)c(OC)ccc23)CN1C(=O)[C@@H](NC(=O)OC1CCCC1)C(C)(C)C)C(=O)O [Compound (1)]
Virologic rebound during the treatment period: vast majority of both 1a and 1b patients demonstrated virologic rebound
